US20110163045A1, “METHOD AND SYSTEM FOR TREATING CONTAMINATED WATER” (Ramot at Tel-Aviv University Ltd., priority 2008, published 2011)
Where “and” joins values, the source holds several entries; their conditions need not be identical. Equal values may be shown once. Read-outs that look alike come from different tables or passages of the source.

Key:
[1] = Direct UV photolytic degradation of single contaminants in deionized water (collimated beam MP Hg lamp, HPLC/MS/MS); type: physicochemical; details: for UV dose for 90% degradation: polychromatic UV 200-400 nm; for pH dependence of rate constant (k) for photolytic degradation: FIG. 21 and FIG. 23, in words; for Optimal pH for photodegradation: UV direct photolysis
Experimental: Solutions of tested contaminants were prepared by dissolving one or more contaminant in 150 ml deionized water (DI) at a concentration of 1 mg/l for each contaminant. The solution was then placed into an open 90×50 mm crystallization dish. […] No. 7830-61, from Ace Glass Inc.) housed in a bench scale collimated beam apparatus. […] 0.5 ml samples were removed from the irradiated solution at selected time intervals in order to measure the concentration of the remaining contaminant. Samples were measured in a 1100-Finnigan LCQ HPLC/MS/MS (high performance liquid chromatography/tandem mass spectrometry) apparatus (Agilent), in order to obtain a chromatogram for the sample. The concentration was expressed as the area of the peak observed in the HPLC/MS/MS chromatogram. The degradation kinetics were expressed as a logarithm of the ratio of the concentration (CH) remaining following a dose H of irradiation to initial concentration (C0). Such a logarithm decreased in a linear manner as a function of the dose, as follows: […] The data were fitted using a linear regression approach (with R^2>0.9) resulting in pseudo-first order reaction kinetics which reflect the difference in photodegradation between samples.

[2] = cited from earlier work
[3] = Direct UV photolytic degradation of SMX in synthetic effluent water; type: physicochemical
Experimental: Solutions of tested contaminants were prepared by dissolving one or more contaminant in 150 ml deionized water (DI) at a concentration of 1 mg/l for each contaminant. The solution was then placed into an open 90×50 mm crystallization dish.
The aqueous solution was stirred continuously for the duration of the experiment, and irradiated using a 0.45 kW polychromatic medium-pressure (MP) Hg vapor lamp (Ace-Hanovia Lamp Cat. No. 7830-61, from Ace Glass Inc.) housed in a bench scale collimated beam apparatus. The polychromatic irradiation was at ultraviolet (UV) wavelengths in a range of 200-400 nm.
0.5 ml samples were removed from the irradiated solution at selected time intervals in order to measure the concentration of the remaining contaminant. Samples were measured in a 1100-Finnigan LCQ HPLC/MS/MS (high performance liquid chromatography/tandem mass spectrometry) apparatus (Agilent), in order to obtain a chromatogram for the sample. The concentration was expressed as the area of the peak observed in the HPLC/MS/MS chromatogram.
The data were fitted using a linear regression approach (with R^2>0.9) resulting in pseudo-first order reaction kinetics which reflect the difference in photodegradation between samples. The constant k (cm^2/mJ), the degradation rate fluence-based constant, was calculated as the negative slope obtained when the degradation was plotted logarithmically as described hereinabove.
The UV dose required for 90% degradation of the tested contaminants was calculated using the obtained value for k, by inserting the appropriate numbers into the above equation: […]
Synthetic wastewater was prepared as described in Seo et al. and diluted with deionized water to obtain a 70% transmittance at 254 nm, which is typical for wastewater effluents treated by UV irradiation.

[4] = cited from earlier work; remark: listed apart in the source
[5] = 5 mg/L hydrogen peroxide, UV fluence of 50 mJ/cm^2; cited from earlier work
[6] = UV fluence of 1000 mJ/cm^2, pH 7.5, 254 nm; cited from earlier work
[7] = cited from earlier work; remark: listed apart in the source
[8] = least favorable tested pH vs optimal pH, deionized water

Row | Structure (SMILES) | Reduction in UV dose [1, 8] | UV dose for 90% degradation ([1]; pH 6, deionized water, 1 mg/l) [mJ/cm^2] | UV dose for 90% degradation ([1]; pH 7, deionized water, 1 mg/l) [mJ/cm^2] | UV dose for 90% degradation ([1]; pH 5, deionized water, 1 mg/l) [mJ/cm^2] | pH dependence of photolytic degradation ([1]; deionized water, in words) | pH dependence of rate constant (k) for photolytic degradation ([1]; deionized water) | Relevant pKa [2] | other results
1 | CC1(C)S[C@@H]2[C@H](NC(=O)[C@H](N)c3ccccc3)C(=O)N2[C@H]1C(=O)O [AMP, ampicillin] | 33.4% | 2875 | 2875 | – | more rapid at a pH of 8 than at a pH of 7 or 6 | – | – | UV dose for 90% degradation ([1]; pH 8, deionized water, 1 mg/l): 1916 mJ/cm2
2 | CC1(C)S[C@@H]2[C@H](NC(=O)[C@H](N)c3ccc(O)cc3)C(=O)N2[C@H]1C(=O)O [AMX, Amoxicillin] | 36.4% | 3285 | 2090 | – | more rapid at a pH of 7 or 8 than at a pH of 6 | higher at a relatively high pH (pH 7 or 8) | 6.9 | UV dose for 90% degradation ([1]; pH 8, deionized water, 1 mg/l): 2090 mJ/cm2
3 | CC(COc1ccc(Oc2ccccc2)cc1)Oc1ccccn1 (stereo not shown) [PRX, pyriproxyfen] | – | – | – | – | – | – | – | pH dependence of photolytic degradation ([1]; 1 mg/l): more rapid at a pH of 5 than at a pH of 3; UV dose for 90% removal ([1]; pH 3, deionized water): 2555.6 mJ/cm^2; UV dose for 90% removal ([1]; pH 4, deionized water): 1352.9 mJ/cm^2; UV dose for 90% removal ([1]; pH 5, deionized water): 1277.8 mJ/cm^2; Reduction in UV dose ([1]; tested pH 3-5, deionized water): 50%
4 | CN(C)[C@@H]1C(O)=C(C(N)=O)C(=O)[C@@]2(O)C(O)=C3C(=O)c4c(O)cccc4[C@@](C)(O)[C@H]3C[C@@H]12 [TC, Tetracycline] | – | 2300 | 1200 | 8000 | more rapid at a pH of 7 than at a pH of 5 | higher at a relatively high pH (pH 7 or 8) | – | –
5 | Oc1nc(Cl)c(Cl)cc1Cl [TCP, 3,5,6-trichloro-2-pyridinol] | – | – | – | – | – | – | – | Degradation of TCP via direct photolytic process ([4]; UV fluence of 50 mJ/cm^2): approximately 40%; Photodegradation rate, constant maximum value ([4]; pH 5): 6.40×10^−3 cm^2 mJ^−1; Degradation of TCP via indirect photolytic process [5]: 50%
6 | CCc1cccc(C)c1N(C(=O)CCl)C(C)COC (stereo not shown) [metolachlor] | – | – | – | – | – | – | – | Fraction degraded [6]: Approximately half
7 | Cc1ncc([N+](=O)[O-])n1CCO [metronidazole] | – | – | – | – | – | – | 2.4 | Dependency of direct UV photolysis on solution pH ([7]; pH 3-9.5): no significant dependency; Removal efficiency of direct photolysis ([7]; pH 6): low removal efficiency

Now from value to molecule, other results behind:

Row | Reduction in UV dose [1, 8] | UV dose for 90% degradation ([1]; pH 6, deionized water, 1 mg/l) [mJ/cm^2] | UV dose for 90% degradation ([1]; pH 7, deionized water, 1 mg/l) [mJ/cm^2] | UV dose for 90% degradation ([1]; pH 5, deionized water, 1 mg/l) [mJ/cm^2] | Structure (SMILES) | pH dependence of photolytic degradation ([1]; deionized water, in words) | pH dependence of rate constant (k) for photolytic degradation ([1]; deionized water) | Relevant pKa [2] | other results
8 | 80.7% | 742 | 403 | 2091 | O=C(O)c1cn(C2CC2)c2cc(N3CCNCC3)c(F)cc2c1=O [CPR, Ciprofloxacin] | more rapid at a pH of 7 than at a pH of 5 | higher at a pH of 7 than at a pH of 5 | – | Degradation in mixture (30 min, pH 5): 26%; Degradation in mixture (60 min): 96%; Degradation in mixture without change of pH, by extrapolation (60 min, pH 5): 53%
9 | 66.6% | 23000 | 11500 | – | NC(=O)N1c2ccccc2C=Cc2ccccc21 [CPZ, Carbamazepine] | more rapid at a pH of 8 than at a pH of 6 | – | 13 | UV dose for 90% degradation ([1]; pH 8, deionized water, 1 mg/l): 7667 mJ/cm2
10 | 68.2% | 2300 | 1045 | 3286 | CCN1CCN(c2cc3c(cc2F)c(=O)c(C(=O)O)cn3C2CC2)CC1 [ENR, enrofloxacin] | more rapid at a pH of 7 than at a pH of 5 | – | 5.94 | –
11 | 84.7% | 2091 | 697 | 4600 | CCn1cc(C(=O)O)c(=O)c2cc(F)c(N3CCNCC3)cc21 [NOR, norfloxacin] | more rapid at a pH of 7 than at a pH of 5 | higher at a relatively high pH (pH 7 or 8) | 8.4 | –
12 | – | 2556 | 1643 | 5750 | CN(C)[C@@H]1C(O)=C(C(N)=O)C(=O)[C@@]2(O)C(O)=C3C(=O)c4c(O)cccc4[C@@](C)(O)[C@H]3[C@H](O)[C@@H]12 [OTC, oxytetracycline] | more rapid at a pH of 7 than at a pH of 5 | higher at a pH of 7 than at a pH of 5 | – | Degradation in mixture (30 min, pH 5): 54%; Degradation in mixture (60 min): 91%; Degradation in mixture without change of pH, by extrapolation (60 min, pH 5): 81%
13 | 58.3% | 3300 | 5750 | 2400 | COc1cc(NS(=O)(=O)c2ccc(N)cc2)nc(OC)n1 [SMT, sulfadimethoxine] | more rapid at a pH of 5 than at a pH of 7 | higher at a relatively low pH (pH 5) | 6.08 | Optimal pH for photodegradation [1]: 5
14 | 73.4% | 590 | – | – | Cc1cc(NS(=O)(=O)c2ccc(N)cc2)no1 [SMX, sulfamethoxazole] | more rapid at a pH of 5 than at a pH of 7 | higher at a pH of 5 than at a pH of 7 | – | Optimal pH for photodegradation [1]: 5; Irradiation time for 90% degradation ([1]; pH 5, deionized water): approximately 4 minutes; Irradiation time for 90% degradation ([1]; pH 7, deionized water): approximately 12 minutes; UV dose for 90% degradation ([3]; pH 7, synthetic effluent water): 1643 mJ/cm^2; Reduction in UV dose ([3]; pH 7 vs pH 5, synthetic effluent water): 80.8%; pH dependence of photolytic degradation ([3]; synthetic effluent water, in words): more rapid at a pH of 5 than at a pH of 7; Degradation in mixture (30 min, pH 5): 98.4%
15 | 95% and 95.4% | 23000 | 3833 | – | COc1cc(Cc2cnc(N)nc2N)cc(OC)c1OC [TMP, Trimethoprim] | more rapid at a pH of 8 than at a pH of 6 | higher at a relatively high pH (pH 7 or 8) | – | Enhancement of photolysis rate ([1]; changing the pH value from 6 to 8, deionized water): more than 12 fold; UV dose for 90% degradation ([1]; pH 8, deionized water, 1 mg/l): 1770 mJ/cm2
